Measurements published in ChEMBL document CHEMBL1138190, “Synthesis and antibacterial activity of novel C12 vinyl ketolides” (J Med Chem, 2006).
Converted amounts (≈) assume the structure as drawn. The source made the active and inactive calls. The calls are words filed in the database; no cut-off is given here.

Tests used:
Streptococcus pneumoniae [1] = assay: Antibacterial activity against Streptococcus pneumoniae Mef 1790; type: functional
Streptococcus pneumoniae [2] = assay: Antibacterial activity against Streptococcus pneumoniae 297-749; type: functional
Streptococcus pneumoniae [3] = assay: Antibacterial activity against Streptococcus pneumoniae Erm 6388; type: functional
Streptococcus pneumoniae [4] = assay: Antibacterial activity against Streptococcus pneumoniae Mef 953; type: functional
Streptococcus pneumoniae [5] = assay: Antibacterial activity against Streptococcus pneumoniae Erm 5399; type: functional
Staphylococcus aureus [6] = assay: Antibacterial activity against Staphylococcus aureus 29213; type: functional
Streptococcus pneumoniae [7] = assay: Antibacterial activity against Streptococcus pneumoniae Mef 1566; type: functional
Streptococcus pneumoniae [8] = assay: Antibacterial activity against Streptococcus pneumoniae Mef 1556; type: functional
Streptococcus pneumoniae [9] = assay: Antibacterial activity against Streptococcus pneumoniae Erm 867; type: functional
Streptococcus pneumoniae [10] = assay: Antibacterial activity against Streptococcus pneumoniae Mef 2880; type: functional
[11] = Volume of distribution in Sprague-Dawley rat at 5 mg/kg, iv and 15 mg/kg, po; type: ADME, organism-based; conditions: in vivo, read-out: Vdss
Haemophilus influenzae [12] = assay: Antibacterial activity against Haemophilus influenzae 2762; type: functional
Rattus norvegicus [13] = assay: Efficacy against Haemophilus influenzae in Sprague-Dawley rat lung infection model at 100 mg/kg; type: functional, organism-based; set-up: dose 100 mg/kg
Streptococcus pneumoniae [14] = assay: Antibacterial activity against Streptococcus pneumoniae Mef 9142; type: functional
Streptococcus pneumoniae [15] = assay: Antibacterial activity against Streptococcus pneumoniae Erm 8919; type: functional
Streptococcus pneumoniae [16] = assay: Antibacterial activity against Streptococcus pneumoniae Mef 10095; type: functional
Streptococcus pneumoniae [17] = assay: Antibacterial activity against Streptococcus pneumoniae Erm 3120; type: functional
Streptococcus pneumoniae [18] = assay: Antibacterial activity against Streptococcus pneumoniae Mef 3449; type: functional
[19] = Plasma half life in Sprague-Dawley rat at 15 mg/kg, po; type: ADME, organism-based; set-up: dose 15 mg/kg, route oral
Streptococcus pneumoniae [20] = assay: Antibacterial activity against Streptococcus pneumoniae Erm 10279; type: functional
Streptococcus pneumoniae [21] = assay: Antibacterial activity against Streptococcus pneumoniae Erm 4290; type: functional
Enterococcus faecalis [22] = assay: Antibacterial activity against Enterococcus faecalis 29212; type: functional
Staphylococcus aureus [23] = assay: Antibacterial activity against Staphylococcus aureus 33591; type: functional
[24] = Oral bioavailability in Sprague-Dawley rat at 100 mg/kg, po; type: ADME, organism-based; conditions: in vivo
Streptococcus pyogenes = assay: Antibacterial activity against Streptococcus pyogenes 8668; type: functional
Streptococcus pneumoniae [25] = assay: Antibacterial activity against Streptococcus pneumoniae 49619; type: functional
Streptococcus pneumoniae [26] = assay: Antibacterial activity against Streptococcus pneumoniae Erm 5354; type: functional
Rattus norvegicus [27] = assay: Efficacy against Streptococcus pneumoniae Erm in Sprague-Dawley rat lung infection model at 100 mg/kg; type: functional, organism-based; set-up: dose 100 mg/kg
Haemophilus influenzae [28] = assay: Antibacterial activity against Haemophilus influenzae 49247; type: functional
Streptococcus pneumoniae [29] = assay: Antibacterial activity against Streptococcus pneumoniae Mef 2382; type: functional
Streptococcus pneumoniae [30] = assay: Antibacterial activity against Streptococcus pneumoniae Mef 9959; type: functional
Streptococcus pneumoniae [31] = assay: Antibacterial activity against Streptococcus pneumoniae Erm 2218; type: functional
Streptococcus pneumoniae [32] = assay: Antibacterial activity against Streptococcus pneumoniae Erm S 4297; type: functional
Streptococcus pneumoniae [33] = assay: Antibacterial activity against Streptococcus pneumoniae Erm 5415; type: functional
Streptococcus pneumoniae [34] = assay: Antibacterial activity against Streptococcus pneumoniae 280-962; type: functional
Streptococcus pneumoniae [35] = assay: Antibacterial activity against Streptococcus pneumoniae Erm 7985; type: functional
Streptococcus pneumoniae [36] = assay: Antibacterial activity against Streptococcus pneumoniae Erm 4589; type: functional
[37] = Lung-to-plasma AUC ratio in Sprague-Dawley rat at 5 mg/kg, iv; type: ADME, organism-based; set-up: dose 5 mg/kg, route intravenous; conditions: lung and plasma
Streptococcus pneumoniae [38] = assay: Antibacterial activity against Streptococcus pneumoniae Mef S 3435; type: functional; conditions: Streptococcus pneumoniae; read-out: MIC
Rattus norvegicus [39] = assay: Plasma AUC in Sprague-Dawley rat at 5 mg/kg, iv; type: ADME, organism-based; set-up: dose 5 mg/kg, route intravenous; conditions: in vivo
[40] = Plasma half life in Sprague-Dawley rat at 5 mg/kg, iv; type: ADME, organism-based; set-up: dose 5 mg/kg, route intravenous
Streptococcus pneumoniae [41] = assay: Antibacterial activity against Streptococcus pneumoniae Mef 4126; type: functional
[42] = Oral bioavailability in Sprague-Dawley rat at 15 mg/kg, po; type: ADME, organism-based; conditions: in vivo
Streptococcus pneumoniae [43] = assay: Antibacterial activity against Streptococcus pneumoniae Erm 8339; type: functional
[44] = tested on: Staphylococcus epidermidis; assay: Antibacterial activity against Staphylococcus epidermidis 14990; type: functional
Enterococcus faecalis [45] = assay: Antibacterial activity against Enterococcus faecalis bc11148-2; type: functional
Streptococcus pneumoniae [46] = assay: Antibacterial activity against Streptococcus pneumoniae Mef S 3427; type: functional
Streptococcus pneumoniae [47] = assay: Antibacterial activity against Streptococcus pneumoniae Erm 6396; type: functional
Streptococcus pneumoniae [48] = assay: Antibacterial activity against Streptococcus pneumoniae Erm 6849; type: functional
Streptococcus pneumoniae [49] = assay: Antibacterial activity against Streptococcus pneumoniae Erm S 4085; type: functional
Streptococcus pneumoniae [50] = assay: Antibacterial activity against Streptococcus pneumoniae Mef 3855; type: functional
[51] = tested on: Staphylococcus epidermidis; assay: Antibacterial activity against Staphylococcus epidermidis f50654; type: functional
Streptococcus pneumoniae [52] = assay: Antibacterial activity against Streptococcus pneumoniae Erm 5554; type: functional
Streptococcus pneumoniae [53] = assay: Antibacterial activity against Streptococcus pneumoniae Mef 41; type: functional
Streptococcus pneumoniae [54] = assay: Antibacterial activity against Streptococcus pneumoniae Erm 5590; type: functional
Streptococcus pneumoniae [55] = assay: Antibacterial activity against Streptococcus pneumoniae Erm 8947; type: functional
Streptococcus pneumoniae [56] = assay: Antibacterial activity against Streptococcus pneumoniae Mef 6966; type: functional
Streptococcus pneumoniae [57] = assay: Antibacterial activity against Streptococcus pneumoniae Mef 5654; type: functional
Streptococcus pneumoniae [58] = assay: Antibacterial activity against Streptococcus pneumoniae Mef 983; type: functional
Streptococcus pneumoniae [59] = assay: Antibacterial activity against Streptococcus pneumoniae Mef 5649; type: functional
[60] = Lung half life in Sprague-Dawley rat at 15 mg/kg, po; type: ADME, organism-based; set-up: dose 15 mg/kg, route oral
Streptococcus pneumoniae [61] = assay: Antibacterial activity against Streptococcus pneumoniae Erm 8257; type: functional
Streptococcus pneumoniae [62] = assay: Antibacterial activity against Streptococcus pneumoniae Mef 4331; type: functional
Rattus norvegicus [63] = assay: Efficacy against Streptococcus pneumoniae Mef in Sprague-Dawley rat lung infection model at 50 mg/kg; type: functional, organism-based; set-up: dose 50 mg/kg

MIC (Streptococcus pneumoniae [1]): 0.1 µg/mL (≈ 0.116 µM)
MIC (Streptococcus pneumoniae [2]): ≤ 0.05 µg/mL
MIC (Streptococcus pneumoniae [3]): 0.4 µg/mL (≈ 0.466 µM)
MIC (Streptococcus pneumoniae [4]): ≤ 0.05 µg/mL
MIC (Streptococcus pneumoniae [5]): 0.025 µg/mL (≈ 0.0291 µM)
MIC (Staphylococcus aureus [6]): ≤ 0.05 µg/mL
MIC (Streptococcus pneumoniae [7]): 0.1 µg/mL (≈ 0.116 µM)
MIC (Streptococcus pneumoniae [8]): ≤ 0.05 µg/mL
MIC (Streptococcus pneumoniae [9]): 0.025 µg/mL (≈ 0.0291 µM)
MIC (Streptococcus pneumoniae [10]): ≤ 0.05 µg/mL
Vd [11]: 12 L/kg
MIC (Haemophilus influenzae [12]): 0.78 µg/mL (≈ 0.909 µM)
MIC (Streptococcus pneumoniae [14]): 0.1 µg/mL (≈ 0.116 µM)
MIC (Streptococcus pneumoniae [15]): 0.025 µg/mL (≈ 0.0291 µM)
MIC (Streptococcus pneumoniae [16]): ≤ 0.05 µg/mL
MIC (Streptococcus pneumoniae [17]): 0.05 µg/mL (≈ 0.0582 µM)
MIC (Streptococcus pneumoniae [18]): ≤ 0.05 µg/mL
half-life [19]: 1.7 h
MIC (Streptococcus pneumoniae [20]): 0.025 µg/mL (≈ 0.0291 µM)
MIC (Streptococcus pneumoniae [21]): 0.025 µg/mL (≈ 0.0291 µM)
MIC (Enterococcus faecalis [22]): ≤ 0.05 µg/mL
MIC (Staphylococcus aureus [23]): > 50 µg/mL
bioavailability [24]: 91%
MIC (Streptococcus pyogenes): ≤ 0.05 µg/mL
MIC (Streptococcus pneumoniae [25]): ≤ 0.05 µg/mL
MIC (Streptococcus pneumoniae [26]): 0.025 µg/mL (≈ 0.0291 µM)
MIC (Haemophilus influenzae [28]): 3.13 µg/mL (≈ 3.65 µM)
MIC (Streptococcus pneumoniae [29]): 0.1 µg/mL (≈ 0.116 µM)
MIC (Streptococcus pneumoniae [30]): ≤ 0.05 µg/mL
MIC (Streptococcus pneumoniae [31]): 0.025 µg/mL (≈ 0.0291 µM)
MIC (Streptococcus pneumoniae [32]): 0.025 µg/mL (≈ 0.0291 µM)
MIC (Streptococcus pneumoniae [33]): 0.025 µg/mL (≈ 0.0291 µM)
MIC (Streptococcus pneumoniae [34]): ≤ 0.05 µg/mL
MIC (Streptococcus pneumoniae [35]): ≤ 0.013 µg/mL
MIC (Streptococcus pneumoniae [36]): 0.025 µg/mL (≈ 0.0291 µM)
Kp [37]: 94
MIC (Streptococcus pneumoniae [38]): ≤ 0.05 µg/mL
AUC (Rattus norvegicus [39]): 2300 ng·h/mL
half-life [40]: 1.3 h
MIC (Streptococcus pneumoniae [41]): ≤ 0.05 µg/mL
bioavailability [42]: 26%
MIC (Streptococcus pneumoniae [43]): 0.2 µg/mL (≈ 0.233 µM)
MIC [44]: ≤ 0.05 µg/mL
MIC (Enterococcus faecalis [45]): 0.1 µg/mL (≈ 0.116 µM)
MIC (Streptococcus pneumoniae [46]): ≤ 0.05 µg/mL
MIC (Streptococcus pneumoniae [47]): 0.05 µg/mL (≈ 0.0582 µM)
MIC (Streptococcus pneumoniae [48]): 0.05 µg/mL (≈ 0.0582 µM)
MIC (Streptococcus pneumoniae [49]): ≤ 0.013 µg/mL
MIC (Streptococcus pneumoniae [50]): ≤ 0.05 µg/mL
MIC [51]: ≤ 0.05 µg/mL
MIC (Streptococcus pneumoniae [52]): 0.1 µg/mL (≈ 0.116 µM)
MIC (Streptococcus pneumoniae [53]): 0.1 µg/mL (≈ 0.116 µM)
MIC (Streptococcus pneumoniae [54]): 0.025 µg/mL (≈ 0.0291 µM)
MIC (Streptococcus pneumoniae [55]): 0.05 µg/mL (≈ 0.0582 µM)
MIC (Streptococcus pneumoniae [56]): ≤ 0.05 µg/mL
MIC (Streptococcus pneumoniae [57]): 0.1 µg/mL (≈ 0.116 µM)
MIC (Streptococcus pneumoniae [58]): 0.1 µg/mL (≈ 0.116 µM)
MIC (Streptococcus pneumoniae [59]): ≤ 0.05 µg/mL
half-life [60]: 1.4 h
MIC (Streptococcus pneumoniae [61]): ≤ 0.013 µg/mL
MIC (Streptococcus pneumoniae [62]): 0.1 µg/mL (≈ 0.116 µM)
Structure (SMILES): C=C[C@]12OC(=O)N(CCCCn3cnc(-c4ccc(Cl)nc4)c3)[C@@H]1[C@@H](C)C(=O)[C@H](C)C[C@@](C)(OC)[C@H](O[C@@H]1O[C@H](C)C[C@H](N(C)C)[C@H]1O)[C@@H](C)C(=O)[C@@H](C)C(=O)O[C@@H]2CC
Activity (Rattus norvegicus [13]): Active
Activity (Rattus norvegicus [27]): Active
Activity (Rattus norvegicus [63]): Active
